The source of these data is patent US20240254082A1, “Substituted Isoindoline-1, 3-diketone PDE4 Inhibitor and Pharmaceutical Application Thereof” (SUZHOU INTRAGRAND PHARMA CO., LTD, priority 2021, published 2024).

Experiment [1] deals with PDE1C (Homo sapiens, UniProt Q14123). Briefly: Selective inhibitory activity assay, PDE1C. The experiment is classed as biochemical. The settings on record: read-out: Inhibition rate (%) of PDE1C. As to the method: (§1) 7. Selective inhibitory activity assay for PDE1, 2, 3, 5, 7, 10 and 11 enzymes
PDE1C, sequence (Q14123 whole entry, species assumed): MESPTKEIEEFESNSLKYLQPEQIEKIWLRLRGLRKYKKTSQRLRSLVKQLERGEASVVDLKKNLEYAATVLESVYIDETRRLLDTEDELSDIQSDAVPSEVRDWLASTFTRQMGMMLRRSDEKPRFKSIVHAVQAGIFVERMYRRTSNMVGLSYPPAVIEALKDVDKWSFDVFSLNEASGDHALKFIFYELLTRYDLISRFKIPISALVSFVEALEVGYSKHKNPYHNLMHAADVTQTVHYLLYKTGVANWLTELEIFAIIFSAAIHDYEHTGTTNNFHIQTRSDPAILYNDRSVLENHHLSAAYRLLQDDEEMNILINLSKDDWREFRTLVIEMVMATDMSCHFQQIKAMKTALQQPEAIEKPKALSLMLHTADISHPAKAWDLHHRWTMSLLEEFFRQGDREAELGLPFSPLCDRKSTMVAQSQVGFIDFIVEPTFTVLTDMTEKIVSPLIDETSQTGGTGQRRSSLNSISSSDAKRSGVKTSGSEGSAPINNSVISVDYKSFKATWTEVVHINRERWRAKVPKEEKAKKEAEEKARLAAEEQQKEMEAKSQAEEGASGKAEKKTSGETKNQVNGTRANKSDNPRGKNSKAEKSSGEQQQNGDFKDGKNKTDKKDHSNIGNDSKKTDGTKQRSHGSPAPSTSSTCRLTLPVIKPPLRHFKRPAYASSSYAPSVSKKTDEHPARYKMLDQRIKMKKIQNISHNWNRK
(§2) The selective specificity of compounds for PDE4 was assessed by assaying single concentrations of the compounds. For example, PDE1a enzyme, PDElc enzyme, PDE2a enzyme, PDE3a enzyme, PDE3b enzyme, PDE5a1 enzyme, PDE7a enzyme, PDE7b enzyme, PDE10a1 enzyme and PDE11a4 enzyme were tested. The selective inhibitory effects of different compounds on the enzymatic activities of PDEIC, PDE2A, PDE3B, PDE5A1, PDE7A, and PDE10A1 at concentrations of 10 μM and 1 μM, respectively, are shown in the table below: […]

For experiment [2], the system named is TNF-α. Description: Inhibition of TNF-α induced in human peripheral blood mononuclear cells. The experiment is classed as cell-based. Particulars: read-out: IC50 (nM), cytokine TNF-α.
Experiment [3] relates to IL-2. Description: Inhibition of IL-2 induced in human peripheral blood mononuclear cells. The settings on record: human PBMC, stimulus SEB; read-out: IC50 (nM), cytokine IL-2. The experiment is classed as cell-based. As to the method:
8. Inhibitory assay of inflammatory factors TNF-α, IL-2, INF-γ
Determination of TNF-α, IL-2 and INF-γ induced by LPS/SEB in human peripheral blood mononuclear cells:
1. The purchased PBMC frozen cells were thawed at 37° C., transferred to RMPI1640 medium, and incubated overnight at 37° C. in an incubator containing 5% of CO2.
2. The next day, the cells were planked at 2×10^5 cells/well, with 100 μL per well.
4. LPS stimulus was added to each well at a final concentration of 10 ng/ml.
5. Incubation was carried out overnight at […] in an incubator containing 5% of CO2.
6. On the third day, the cell culture supernatant was collected, and cytokine assay was performed using an MSD method.

Experiment [4] addresses PDE10A1 (Homo sapiens, UniProt Q9Y233). Description: Selective inhibitory activity assay, PDE10A1. It counts as biochemical. The settings on record: read-out: Inhibition rate (%) of PDE10A1. As to the method:
as §1, §2

The target in experiment [5] is PDE3B (Homo sapiens, UniProt Q13370). Description: Selective inhibitory activity assay, PDE3B. The experiment is classed as biochemical. The settings on record: read-out: Inhibition rate (%) of PDE3B. The method, then:
as §1, §2

In experiment [6] the target is PDE7A (Homo sapiens, UniProt Q13946). Description: Selective inhibitory activity assay, PDE7A. The experiment is classed as biochemical. The settings on record: read-out: Inhibition rate (%) of PDE7A. The method, then:
as §1, §2

For experiment [7], the system named is INF-γ. Briefly: Inhibition of INF-γ induced in human peripheral blood mononuclear cells. It counts as cell-based.
Experiment [8] deals with PDE5A1 (Homo sapiens, UniProt O76074). Briefly: Selective inhibitory activity assay, PDE5A1. It counts as biochemical. The settings on record: read-out: Inhibition rate (%) of PDE5A1. The method, then: as §1, §2
Experiment [9] has as its target PDE2A (Homo sapiens, UniProt O00408). Description: Selective inhibitory activity assay, PDE2A. It counts as biochemical. The settings on record: read-out: Inhibition rate (%) of PDE2A. The method, then:
as §1, §2

The target in experiment [10] is PDE4D3 (Homo sapiens, UniProt Q08499). Description: Inhibition assay of PDE4D3 enzyme (TR-FRET kit). It counts as biochemical. The method, then: 2. Inhibition assay of PDE4D3 enzyme:
(§3) Materials and Instruments:
FAM substrate: A stock solution of 20 μM FAM substrate was diluted to 200 nM with PDE assay buffer. 12.5 μL of the diluted substrate was added to each reaction well.
(§4) 5 μL of the compound stock solution was added to 45 μL of DMSO to prepare a 1 mM diluent. 5 μL of the 1 mM diluent was added to 45 μL of PDE assay buffer to prepare a gradient dilution starting point. Then, according to the method of adding 5 μL of the previous concentration solution to 15 μL of PDE assay buffer, gradient dilution was carried out for 9 times to prepare compound working solutions with 10 concentrations. The working solutions were added to compound wells at 2.5 μL/well.
PDE4D3: 0.054 μL of a PDE4D3 recombinase stock solution was added to 1500 μL of PDE buffer, and the mixture was added to all compound wells and positive control wells at 10 μL/well. 10 μL of PDE assay buffer was added to substrate control wells.
Binding solution: 3750 μL of binding buffer A and 3750 μL of binding buffer B were mixed well. Then, 150 μL of a binder was added into the mixture and mixed well. 7.5 μL of a Tb donor was added and mixed well. The obtained mixture was added to all wells at 50 μL/well.
S520=Read value of sample 520 nm
S490=Read value of sample 490 nm
Tb520=Read value of Tb only 520 nm
Tb490=Read value of Tb only 490 nm
FRETp=Positive control FRET
FRETsub=Substrate control FRET.

The target of experiment [11] is T1, PDE4A1 (Homo sapiens, UniProt P27815).
T1 construct: purchased BPS 60340
T1 sequence (P27815 1-647 isoform P27815-4): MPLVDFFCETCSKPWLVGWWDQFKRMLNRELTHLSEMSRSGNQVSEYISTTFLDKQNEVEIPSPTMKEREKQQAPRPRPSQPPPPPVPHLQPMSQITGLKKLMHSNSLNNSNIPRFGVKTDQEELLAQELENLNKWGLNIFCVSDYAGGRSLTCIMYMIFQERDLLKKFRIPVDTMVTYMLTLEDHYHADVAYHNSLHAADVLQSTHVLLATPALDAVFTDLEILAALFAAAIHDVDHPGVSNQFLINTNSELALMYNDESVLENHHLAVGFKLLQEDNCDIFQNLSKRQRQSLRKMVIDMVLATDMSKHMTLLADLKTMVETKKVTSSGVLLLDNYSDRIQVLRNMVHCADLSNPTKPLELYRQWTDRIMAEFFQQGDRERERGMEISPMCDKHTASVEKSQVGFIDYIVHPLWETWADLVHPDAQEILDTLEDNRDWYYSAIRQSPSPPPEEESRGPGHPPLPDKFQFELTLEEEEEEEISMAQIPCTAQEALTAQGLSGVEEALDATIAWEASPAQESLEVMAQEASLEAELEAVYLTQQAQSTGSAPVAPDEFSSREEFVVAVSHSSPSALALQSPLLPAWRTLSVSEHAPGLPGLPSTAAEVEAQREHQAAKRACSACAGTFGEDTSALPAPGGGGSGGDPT
Briefly: Inhibition assay of PDE4A1 enzyme (FP kit). The experiment is classed as biochemical. As to the method:
3. Inhibition assay of PDE4A1 enzyme:
as §3
(§5) FAM substrate: 25 μL of a FAM substrate stock solution was added into 2500 μL of PDE assay buffer. 25 μL of the diluted substrate was added to each reaction well.
(§6) 5 μL of the compound stock solution was added to 45 μL of DMSO to prepare a 1 mM diluent. 5 μL of the 1 mM diluent was added to 45 μL of PDE assay buffer to prepare a gradient dilution starting point. Then, according to the method of adding 5 μL of the previous concentration solution to 15 μL of PDE assay buffer, gradient dilution was carried out for 9 times to prepare compound working solutions with 10 concentrations. The working solutions were added to compound wells at 5 μL/well.
PDE4A1: First, a PDE4A1 stock solution was diluted by 100 times to a concentration of 4.9 ng/μL, 1.8 μL of the diluent was added to 2200 μL of PDE assay buffer, and the mixture was added to all compound wells and positive control wells at 20 μL/well. 20 μL of PDE assay buffer was added to substrate control wells.
Binding solution: 95 μL of binding buffer was added into 9.5 mL of binder diluent, and then mixed well. The obtained mixture was added to all wells at 100 μL/well.
(§7) FPsub=Substrate control FP.

Experiment [12] has as its target T2, PDE4C1 (Homo sapiens, UniProt Q08493).
T2 construct: purchased BPS 60384
Description: Inhibition assay of PDE4C1 enzyme (FP kit). The experiment is classed as biochemical. The method, then: 5. Inhibition assay of PDE4C1 enzyme:
as §3
FAM substrate: 12.5 μL of a FAM substrate stock solution was added into 1250 μL of PDE assay buffer. 12.5 μL of the diluted substrate was added to each reaction well.
as §4
PDE4C1: First, a PDE4C1 stock solution was diluted by 100 times to a concentration of 3.2 ng/μL, 13.75 μL of the diluent was added to 1100 μL of PDE assay buffer, and the mixture was added to all compound wells and positive control wells at 10 μL/well. 10 μL of PDE assay buffer was added to substrate control wells.
Binding solution: 50 μL of binder was added into 5 mL of binder diluent, and then mixed well. The obtained mixture was added to all wells at 50 μL/well.
as §7

Experiment [13] concerns the target T3, PDE4B2 (Homo sapiens, UniProt Q07343).
T3 construct: purchased BPS 60343
Description: Inhibition assay of PDE4B2 enzyme (FP kit). It counts as biochemical. The method, then:
4. Inhibition assay of PDE4B2 enzyme:
as §3, §5, §6
PDE4B2: First, a PDE4B2 stock solution was diluted by 100 times to a concentration of 5.2 ng/μL, 3.2 μL of the diluent was added to 2200 μL of PDE assay buffer, and the mixture was added to all compound wells and positive control wells at 20 μL/well. 20 μL of PDE assay buffer was added to substrate control wells.
Binding solution: 95 μL of binder was added into 9.5 mL of binder diluent, and then mixed well. The obtained mixture was added to all wells at 100 μL/well.
as §7

[14] abbreviates: Homo sapiens, PBMC, read-out: IC50 (nM), cytokine INF-r, human PBMC, stimulus SEB.
Setting [15] is: human PBMC, stimulus LPS, read-out: IC50 (nM), cytokine INF-r.

Read-outs that look alike come from different tables or passages of the source. A value given as a limit tells only on which side of the number the result lay.

T2 sequence (Q08493 whole entry): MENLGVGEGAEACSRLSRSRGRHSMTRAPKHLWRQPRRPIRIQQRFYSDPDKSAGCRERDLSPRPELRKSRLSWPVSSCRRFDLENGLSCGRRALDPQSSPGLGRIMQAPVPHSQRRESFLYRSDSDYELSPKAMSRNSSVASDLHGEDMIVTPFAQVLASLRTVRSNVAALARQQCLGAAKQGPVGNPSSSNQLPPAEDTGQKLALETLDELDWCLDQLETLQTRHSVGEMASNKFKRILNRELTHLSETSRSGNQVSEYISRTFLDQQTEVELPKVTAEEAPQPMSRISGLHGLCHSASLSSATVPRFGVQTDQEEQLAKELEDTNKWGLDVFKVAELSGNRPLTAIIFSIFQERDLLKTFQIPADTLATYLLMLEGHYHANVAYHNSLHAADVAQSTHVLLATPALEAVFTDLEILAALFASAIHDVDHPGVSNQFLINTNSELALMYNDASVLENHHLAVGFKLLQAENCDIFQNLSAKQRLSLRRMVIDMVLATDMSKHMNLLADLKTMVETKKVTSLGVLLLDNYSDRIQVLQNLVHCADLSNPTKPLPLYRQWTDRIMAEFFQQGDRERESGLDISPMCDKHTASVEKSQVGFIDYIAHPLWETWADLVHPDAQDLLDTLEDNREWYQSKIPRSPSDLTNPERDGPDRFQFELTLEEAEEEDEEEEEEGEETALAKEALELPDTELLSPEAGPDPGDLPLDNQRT
PDE7A, sequence (Q13946 whole entry, species assumed): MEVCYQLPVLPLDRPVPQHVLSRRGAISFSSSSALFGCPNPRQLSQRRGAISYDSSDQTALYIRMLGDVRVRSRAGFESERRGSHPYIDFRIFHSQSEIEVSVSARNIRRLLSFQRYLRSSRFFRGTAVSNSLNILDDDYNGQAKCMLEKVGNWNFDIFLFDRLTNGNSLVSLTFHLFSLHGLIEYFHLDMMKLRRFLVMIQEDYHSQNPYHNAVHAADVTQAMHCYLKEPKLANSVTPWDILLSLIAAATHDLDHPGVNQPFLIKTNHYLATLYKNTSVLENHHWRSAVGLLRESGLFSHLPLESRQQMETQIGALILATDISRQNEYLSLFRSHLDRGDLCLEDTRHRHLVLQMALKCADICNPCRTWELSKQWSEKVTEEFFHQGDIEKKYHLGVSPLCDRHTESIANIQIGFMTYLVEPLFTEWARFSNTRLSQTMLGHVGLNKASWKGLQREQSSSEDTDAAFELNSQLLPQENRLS
PDE10A1, sequence (Q9Y233 1-779 isoform Q9Y233-1, species assumed): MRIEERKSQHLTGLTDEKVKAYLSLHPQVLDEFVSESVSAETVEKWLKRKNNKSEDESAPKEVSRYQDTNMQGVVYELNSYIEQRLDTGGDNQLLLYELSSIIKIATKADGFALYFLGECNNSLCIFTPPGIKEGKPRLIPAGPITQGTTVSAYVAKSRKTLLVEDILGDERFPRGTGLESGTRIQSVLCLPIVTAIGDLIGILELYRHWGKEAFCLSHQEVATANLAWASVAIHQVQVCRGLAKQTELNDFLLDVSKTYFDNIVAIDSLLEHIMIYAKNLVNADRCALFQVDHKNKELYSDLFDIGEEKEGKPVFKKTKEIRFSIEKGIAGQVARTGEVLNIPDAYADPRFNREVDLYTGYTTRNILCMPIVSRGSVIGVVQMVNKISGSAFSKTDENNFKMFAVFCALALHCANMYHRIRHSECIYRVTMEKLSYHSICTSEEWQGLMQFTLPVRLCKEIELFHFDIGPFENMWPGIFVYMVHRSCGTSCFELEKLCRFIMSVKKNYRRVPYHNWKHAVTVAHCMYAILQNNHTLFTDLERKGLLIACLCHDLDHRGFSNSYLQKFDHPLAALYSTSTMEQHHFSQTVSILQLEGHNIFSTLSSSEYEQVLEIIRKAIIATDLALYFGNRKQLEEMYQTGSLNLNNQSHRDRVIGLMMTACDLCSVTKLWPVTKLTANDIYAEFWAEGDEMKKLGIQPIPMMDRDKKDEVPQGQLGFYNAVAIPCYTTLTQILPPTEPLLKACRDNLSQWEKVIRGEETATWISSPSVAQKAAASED
PDE4D3, sequence (Q08499 1-673 isoform Q08499-2): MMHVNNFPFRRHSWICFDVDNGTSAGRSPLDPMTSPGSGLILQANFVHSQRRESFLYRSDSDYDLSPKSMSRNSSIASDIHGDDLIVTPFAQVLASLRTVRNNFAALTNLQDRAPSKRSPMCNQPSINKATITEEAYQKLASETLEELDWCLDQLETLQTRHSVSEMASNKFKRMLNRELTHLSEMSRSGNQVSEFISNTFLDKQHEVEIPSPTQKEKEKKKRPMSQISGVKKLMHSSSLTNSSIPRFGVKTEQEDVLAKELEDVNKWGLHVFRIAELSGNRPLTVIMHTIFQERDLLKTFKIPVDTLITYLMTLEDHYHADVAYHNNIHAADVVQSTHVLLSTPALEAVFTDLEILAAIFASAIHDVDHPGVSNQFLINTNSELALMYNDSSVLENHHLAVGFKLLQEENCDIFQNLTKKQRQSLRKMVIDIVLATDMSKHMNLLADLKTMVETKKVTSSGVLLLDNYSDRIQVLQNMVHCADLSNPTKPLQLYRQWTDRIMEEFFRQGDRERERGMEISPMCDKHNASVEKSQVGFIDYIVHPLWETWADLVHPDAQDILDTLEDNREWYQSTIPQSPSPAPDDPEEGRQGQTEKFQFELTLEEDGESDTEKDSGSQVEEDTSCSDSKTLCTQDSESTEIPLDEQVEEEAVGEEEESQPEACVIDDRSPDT
PDE2A, sequence (O00408 whole entry, species assumed): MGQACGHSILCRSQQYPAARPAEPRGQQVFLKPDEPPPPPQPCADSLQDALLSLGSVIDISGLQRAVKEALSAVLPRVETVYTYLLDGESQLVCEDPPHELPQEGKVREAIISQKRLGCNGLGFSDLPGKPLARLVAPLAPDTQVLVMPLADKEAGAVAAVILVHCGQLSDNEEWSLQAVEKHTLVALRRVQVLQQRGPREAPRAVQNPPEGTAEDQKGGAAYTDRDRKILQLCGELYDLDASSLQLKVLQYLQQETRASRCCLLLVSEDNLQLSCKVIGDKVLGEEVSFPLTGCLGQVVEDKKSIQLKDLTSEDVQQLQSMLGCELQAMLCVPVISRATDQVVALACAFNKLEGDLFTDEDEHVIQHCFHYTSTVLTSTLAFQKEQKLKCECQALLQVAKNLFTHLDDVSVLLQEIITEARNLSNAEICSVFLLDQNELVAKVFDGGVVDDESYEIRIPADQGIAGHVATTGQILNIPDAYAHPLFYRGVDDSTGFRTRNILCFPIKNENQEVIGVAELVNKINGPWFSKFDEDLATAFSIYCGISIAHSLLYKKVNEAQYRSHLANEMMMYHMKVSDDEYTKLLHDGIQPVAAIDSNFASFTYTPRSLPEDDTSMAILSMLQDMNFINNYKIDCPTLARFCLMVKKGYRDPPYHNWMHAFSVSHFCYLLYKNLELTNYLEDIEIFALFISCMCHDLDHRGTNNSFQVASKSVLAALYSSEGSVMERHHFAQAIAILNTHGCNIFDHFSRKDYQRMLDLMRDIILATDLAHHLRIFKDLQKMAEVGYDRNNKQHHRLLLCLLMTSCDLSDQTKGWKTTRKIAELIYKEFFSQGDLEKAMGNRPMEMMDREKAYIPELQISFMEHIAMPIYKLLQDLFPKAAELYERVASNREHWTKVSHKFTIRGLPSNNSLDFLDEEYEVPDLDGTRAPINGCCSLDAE

Take `CCOc1cc([C@@H](CS(C)(=O)=O)N2C(=O)c3cccc(NC(C)=O)c3C2=O)ccc1OC` [Example 0, Apremilast, reference compound]: the inhibition at 1 µM in experiment [1] was 7.77%; in [4] it was 0%; in [5] it was 2.44%; in [6], 9.41%; in [8] it was 3.97%; in [9], 2.95%. Further, the inhibition at 10 µM is 37.1% in experiment [1]; -2.75% in experiment [4]; 1.56% in [5]; 11.1% in experiment [6]; 2.35% in experiment [9]. Also, the IC50 amounted to 63.8 nM in experiment [2] (Homo sapiens, PBMC); 110 nM in experiment [3]; 15.4 nM in experiment [7] (Homo sapiens, PBMC, read-out: IC50 (nM), cytokine INF-r, human PBMC, stimulus LPS); 77.8 nM in [7] (setting [14]).

In the case of `CCCCCc1ccc(NC(=O)CCCCl)c2c1C(=O)N([C@H](CS(C)(=O)=O)c1ccc(OC)c(OCC)c1)C2=O` [Example 5, (S)-2-[1-(3-ethoxy-4-methoxyphenyl)-2-alkylsulfonylethyl]-4-(γ-chlorobutyramido)-7-pentyl isoindoline-1,3-diketone], the inhibition at 1 µM came out at 8.26% in experiment [1]; 2.21% in experiment [4]; 0.06% in experiment [5]; 0% in experiment [6]; 0.66% in [8]; 0.83% in experiment [9]. Also, the inhibition at 10 µM in [1] was 30.8%; in experiment [4], 5.46%; in experiment [5], -0.69%; in experiment [6], 1.94%; in experiment [8], 8.39%; in [9] it was 9.01%. In addition, the IC50 is 10 to 50 nM in [10], below 100 nM in [11], 200 to 500 nM in experiment [12] and below 100 nM in experiment [13].

`CCCCCc1ccc(NC(C)=O)c2c1C(=O)N([C@H](CS(C)(=O)=O)c1ccc(OC)c(OCC)c1)C2=O` [Example 9, (S)-2-[1-(3-ethoxy-4-methoxyphenyl)-2-alkylsulfonylethyl]-4-acetamido-7-pentyl isoindoline-1,3-diketone]: the inhibition at 1 µM worked out at 0.49% in [1]; 0% in experiment [4]; 5.44% in experiment [5]; 20.8% in experiment [6]; 1.99% in experiment [8]; 5.83% in experiment [9]. Also, the inhibition at 10 µM in [1] was 30.6%; in experiment [4], 10.1%; in experiment [5], 0.81%; in experiment [6], 44.5%; in experiment [8] it was 5.74%; in experiment [9], 12.2%. Further, the IC50 is 0.82 nM in [2] (human PBMC, stimulus LPS); below 5 nM in [10]; 0.44 nM in experiment [3]; 1.82 nM in experiment [7] (setting [14]); 0.43 nM in experiment [7] (setting [15]); below 100 nM in [11]. The IC50 in [12] was below 200 nM; in experiment [13], below 100 nM.

In the case of `CCCCCc1ccc(NC(=O)CC)c2c1C(=O)N([C@H](CS(C)(=O)=O)c1ccc(OC)c(OCC)c1)C2=O` [Example 13, (S)-2-[1-(3-ethoxy-4-methoxyphenyl)-2-alkylsulfonylethyl]-4-propanamido-7-pentyl isoindoline-1,3-diketone], the inhibition at 1 µM in [1] is 5.34%; in [4], 16.3%; in [5], 3.31%; in experiment [6], 0%; in experiment [8] it was 14.1%; in experiment [9], 0.08%. Also, the inhibition at 10 µM is 51.7% in experiment [1]; -26.7% in [4]; 0.94% in experiment [5]; 9.96% in [6]; 20.3% in experiment [8]; 13.8% in experiment [9]. Moreover, the IC50 in experiment [10] was 10 to 50 nM; in experiment [11] it was 100 to 200 nM; in experiment [12] it was 200 to 500 nM; in [13] it was 100 to 200 nM.

With `O=C(Nc1c(Cl)cncc1Cl)c1ccc(OC(F)F)c(OCC2CC2)c1` [Roflumilast], the IC50 in experiment [2] (human PBMC, stimulus LPS) stood at 2.83 nM; in [3] it was 14.7 nM; in experiment [7] (setting [14]) it was 10.9 nM; in experiment [7] (setting [15]), 1.4 nM.
